Experimental data taken from US9388141B2, “Acylaminocycloalkyl compounds suitable for treating disorders that respond to modulation of dopamine D3 receptor” (AbbVie Deutschland GmbH & Co. KG, priority 2013, dated 2016).

Tests used:
[1] = target: T1, human dopamine D2L receptors (long isoform) (Homo sapiens, UniProt P14416); assay: Dopamine D2L receptor binding, [125I]-iodospiperone displacement; details: selectivity ratio Ki (D2L)/Ki (D3)
T1 construct: expressed in transfected cells; host or cells: HEK-293
Description: (§1) The substance to be tested was either dissolved in methanol/Chremophor® (BASF SE) or in dimethyl sulfoxide and then diluted with water to the desired concentration.
(§2) Each assay mixture was run in triplicate. • The incubation buffer contained 50 mM tris, 120 mM NaCl, 5 mM KCl, 2 mM CaCl2, 2 mM MgCl2 and 0.1% bovine serum albumin, 10 μM quinolone and 0.1% ascorbic acid (prepared fresh daily). […] Each assay mixture was run in triplicate. • The incubation buffer contained 50 mM tris, 120 mM NaCl, 5 mM KCl, 2 mM CaCl2, 2 mM MgCl2 and 0.1% bovine serum albumin. The buffer was adjusted to pH 7.4 with HCl. c) Measurement and Analysis: • After having been incubated at 25° C. for 60 minutes, the assay mixtures were filtered through a Whatman GF/B glass fiber filter under vacuum using a cell collecting device. The filters were transferred to scintillation viols using a filter transfer system. After 4 ml of Ultima Gold® (Packard) have been added, the samples were shaken for one hour and the radioactivity was then counted in a Beta-Counter (Packard, Tricarb 2000 or 2200CA).

[2] = target: T2, human dopamine D3 receptors (Homo sapiens, UniProt P35462); assay: Dopamine D3 receptor binding, [125I]-iodosulpride displacement; details: membranes of HEK-293 cells with human D3 receptors, 0.1 nM [125I]-iodosulpride
T2 construct: expressed in transfected cells; host or cells: HEK-293
Description: as §1, §2

[3] = Determination of the microsomal half-life / microsomal clearance; type: in vitro ADME; details: human liver microsomes, 0.5 μM test substance, 0.25 mg microsomal protein/ml, pH 7.4, 37° C.
Description: The metabolic stability of the compounds of the invention was determined in the following assay.
The test substances were incubated in a concentration of 0.5 μM as follows:
0.5 μM test substance are preincubated together with liver microsomes from different species (from rat, human or other species) (0.25 mg of microsomal protein/ml) in 0.05 M potassium phosphate buffer of pH 7.4 in microtiter plates at 37° C. for 5 min. The reaction is started by adding NADPH (1 mg/mL). After 0, 5, 10, 15, 20 and 30 min, 50 μl aliquots are removed, and the reaction is immediately stopped and cooled with the same volume of acetonitrile. The samples are frozen until analyzed. The remaining concentration of undegraded test substance is determined by MSMS. The half-life (T1/2) is determined from the gradient of the signal of test substance/unit time plot, it being possible to calculate the half-life of the test substance, assuming first order kinetics, from the decrease in the concentration of the compound with time. The microsomal clearance (mCl) is calculated from mCl=1n2/T1/2/(content of microsomal protein in mg/ml)×1000 [[…]] (modified from references: Di, The Society for Biomoleculur Screening, 2003, 453-462; Obach, DMD, 1999 vol 27. N 11, 1350-1359).

[4] = target: T3, hERG cardiac K+ channel (Homo sapiens, UniProt Q12809); assay: Blocking the hERG channel, [3H]dofetilide displacement; type: binding; details: membrane homogenate of HEK 293 cells with hERG K+ channels
T3 construct: expressed in transfected cells; host or cells: HEK-293
Description: The binding affinity of test drugs for the hERG cardiac K^+ channel was determined by their ability to displace tritiated dofetilide (a class III antiarrhythmic drug and potent hERG blocker) in membrane homogenates from HEK-293 cells heterogeneously expressing the hERG channel. The assay was performed as previously described G. J. Diaz et al., Journal of Pharmacological and Toxicological Methods, 50 (2004), 187-199). For this, drug dilutions were prepared from 10 mM DMSO stocks and the following were added to a 96-well polystyrene plate (Perkin-Elmer Optiplate): 20 μl of assay binding buffer (for total bounds), or […] astemizole (for non-specific bounds), or test drug, 50 μl of [^3H]dofetilide (20 nM, ˜80 Ci/mmol specific activity), and 130 μl of membrane homogenate from HEK 293 cells stably transfected with hERG K^+ channels (final protein concentration of 30 μg per well). The plates were incubated at ambient temperature for […], aspirated onto GF/B filter plates (Perkin-Elmer), and washed with 2 ml of cold wash buffer. After allowing the plates to dry, 50 μl of scintillant (Perkin-Elmer MicroScint 20) were added to each well and the radioactivity was counted in a Perkin-Elmer Topcount NXT scintillation counter. […]

T2 sequence (P35462 whole entry): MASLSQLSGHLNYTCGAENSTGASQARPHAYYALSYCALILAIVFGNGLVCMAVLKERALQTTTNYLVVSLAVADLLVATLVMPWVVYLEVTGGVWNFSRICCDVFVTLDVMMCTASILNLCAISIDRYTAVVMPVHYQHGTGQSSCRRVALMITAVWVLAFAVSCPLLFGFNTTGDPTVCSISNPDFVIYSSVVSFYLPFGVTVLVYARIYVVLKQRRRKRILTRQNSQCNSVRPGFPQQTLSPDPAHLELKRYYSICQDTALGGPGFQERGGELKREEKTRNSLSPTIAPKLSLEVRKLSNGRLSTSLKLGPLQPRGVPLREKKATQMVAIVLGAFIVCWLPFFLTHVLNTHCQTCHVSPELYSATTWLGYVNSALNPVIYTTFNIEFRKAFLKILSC
T1 sequence (P14416 whole entry, canonical isoform): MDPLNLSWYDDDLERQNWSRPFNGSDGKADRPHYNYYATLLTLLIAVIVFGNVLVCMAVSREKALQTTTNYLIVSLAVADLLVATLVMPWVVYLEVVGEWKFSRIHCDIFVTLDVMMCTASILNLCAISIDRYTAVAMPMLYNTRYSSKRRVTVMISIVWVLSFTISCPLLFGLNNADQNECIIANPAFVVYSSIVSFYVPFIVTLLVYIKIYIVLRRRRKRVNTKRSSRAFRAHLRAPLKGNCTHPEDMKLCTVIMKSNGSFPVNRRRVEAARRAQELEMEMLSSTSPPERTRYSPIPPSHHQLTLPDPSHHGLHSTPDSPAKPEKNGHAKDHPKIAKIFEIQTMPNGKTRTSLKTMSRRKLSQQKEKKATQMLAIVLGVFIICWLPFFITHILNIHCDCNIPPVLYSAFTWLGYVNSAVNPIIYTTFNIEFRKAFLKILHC
T3 sequence (Q12809 whole entry): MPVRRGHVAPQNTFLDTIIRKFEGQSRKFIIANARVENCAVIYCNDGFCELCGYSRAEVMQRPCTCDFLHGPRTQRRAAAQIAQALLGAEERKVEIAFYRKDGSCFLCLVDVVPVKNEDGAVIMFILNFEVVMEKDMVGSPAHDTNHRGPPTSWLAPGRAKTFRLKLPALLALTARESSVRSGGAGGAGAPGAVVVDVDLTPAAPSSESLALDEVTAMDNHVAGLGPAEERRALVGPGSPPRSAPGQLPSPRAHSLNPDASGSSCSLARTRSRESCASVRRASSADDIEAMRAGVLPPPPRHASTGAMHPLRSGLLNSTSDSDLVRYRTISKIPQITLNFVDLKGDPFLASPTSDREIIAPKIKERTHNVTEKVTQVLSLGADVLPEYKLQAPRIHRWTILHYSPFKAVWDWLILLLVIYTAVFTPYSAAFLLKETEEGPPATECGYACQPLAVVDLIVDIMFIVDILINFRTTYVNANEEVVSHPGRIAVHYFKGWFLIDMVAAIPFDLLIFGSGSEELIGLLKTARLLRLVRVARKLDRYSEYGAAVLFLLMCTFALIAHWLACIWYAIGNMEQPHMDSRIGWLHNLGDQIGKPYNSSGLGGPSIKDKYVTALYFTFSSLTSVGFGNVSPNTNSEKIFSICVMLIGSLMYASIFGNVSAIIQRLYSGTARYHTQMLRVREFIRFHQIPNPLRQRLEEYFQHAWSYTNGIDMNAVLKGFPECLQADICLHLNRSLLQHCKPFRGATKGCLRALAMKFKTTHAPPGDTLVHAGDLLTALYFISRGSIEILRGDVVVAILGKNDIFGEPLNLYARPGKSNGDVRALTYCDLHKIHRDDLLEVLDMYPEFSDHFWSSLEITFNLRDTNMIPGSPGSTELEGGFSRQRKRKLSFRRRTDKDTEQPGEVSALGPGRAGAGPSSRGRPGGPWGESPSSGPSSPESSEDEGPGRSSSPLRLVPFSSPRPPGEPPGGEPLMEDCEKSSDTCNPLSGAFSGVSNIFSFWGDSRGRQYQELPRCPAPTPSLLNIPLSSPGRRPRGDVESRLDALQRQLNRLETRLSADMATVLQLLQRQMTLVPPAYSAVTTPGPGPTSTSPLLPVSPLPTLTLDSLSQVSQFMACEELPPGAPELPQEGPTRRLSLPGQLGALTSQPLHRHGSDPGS

| Structure (SMILES) | D2/D3, Ki (D2L)/Ki (D3) [1] | Ki [2] [nM] | Human mCl [3] | IC50 [4] [nM] |
| --- | --- | --- | --- | --- |
| CC(C)(C)c1nc(C2CCC2)cc(N2CCN(CC[C@H]3CC[C@H](NC(=O)[C@H]4CC[C@H](O)CC4)CC3)CC2)n1 [Compound 1, trans-N-[trans-4-[2-[4-(2-tert-butyl-6-cyclobutyl-pyrimidin-4-yl)piperazin-1-yl]ethyl]cyclohexyl]-4-hydroxy-cyclohexanecarboxamide] | +++ (+++>50) | < 10 | + (+: 20-120 μl min^−1 mg^−1) | > 10000 |
| CC(C)(C)c1nc(C2CCCC2)cc(N2CCN(CC[C@H]3CC[C@@H](NC(=O)[C@H]4CC[C@H](O)CC4)CC3)CC2)n1 [Compound 36, trans-N-[cis-4-[2-[4-(2-tert-butyl-6-cyclopentyl-pyrimidin-4-yl)piperazin-1-yl]ethyl]cyclohexyl]-4-hydroxy-cyclohexanecarboxamide] | +++ (+++>50) | < 10 | + (+: 20-120 μl min^−1 mg^−1) | – |
| COCc1cc(N2CCN(CC[C@H]3CC[C@H](NC(=O)[C@H]4CC[C@H](O)CC4)CC3)CC2)nc(C(C)(C)C)n1 [Compound 37, trans-N-[trans-4-[2-[4-[2-tert-butyl-6-(methoxymethyl)pyrimidin-4-yl]piperazin-1-yl]ethyl]cyclohexyl]-4-hydroxy-cyclohexanecarboxamide] | +++ (+++>50) | < 10 | + (+: 20-120 μl min^−1 mg^−1) | – |
| CC(C)(C)c1nc(C2CCC2)cc(N2CCN(CC[C@H]3CC[C@H](NC(=O)[C@H]4C[C@H](O)C4)CC3)CC2)n1.O=C(O)C(F)(F)F [Compound 38, trans-N-[trans-4-[2-[4-(2-tert-butyl-6-cyclobutyl-pyrimidin-4-yl)piperazin-1-yl]ethyl]cyclohexyl]-3-hydroxy-cyclobutanecarboxamide; 2,2,2-trifluoroacetic acid] | ++ (++>20) | < 10 | ++ (++: <20 μl min^−1 mg^−1) | – |
| CC(C)(C)c1nc(C2CCC2)cc(N2CCN(CC[C@H]3C[C@H](NC(=O)[C@H]4C[C@H](O)C4)C3)CC2)n1.O=C(O)C(F)(F)F [Compound 39, trans-N-[trans-3-[2-[4-(2-tert-butyl-6-cyclobutyl-pyrimidin-4-yl)piperazin-1-yl]ethyl]cyclobutyl]-3-hydroxy-cyclobutanecarboxamide; 2,2,2-trifluoroacetic acid] | +++ (+++>50) | < 10 | ++ (++: <20 μl min^−1 mg^−1) | – |
